Assays:
HEK293 cells [1] = test: Preliminary screening as mRNA vectors, EGFP mRNA transfection of HEK293 cells; type: cell-based; conditions: HEK293 cells, 96-well plates, EGFP mRNA 50 ng per well; percentage of GFP fluorescent cells relative to total number of cells (Hoechst)
Outline: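 Each well of HEK293 cells received 50 ng of EGFP mRNA. Efficiency was expressed as percent GFP-expressing cells over Hoechst-defined total cell number.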

HEK293 cells [2] = test: Preliminary screening as DNA vectors, GFP transfection of HEK293 cells; type: cell-based; conditions: HEK293 cells; lipid/DOPE liposome with 75 ng plasmid DNA (psin-EGFP-IRES-Puro); number of cells expressing GFP divided by total number of nuclei (Hoechst)
Outline: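 Lipid + DOPE liposomes (NaOAc, pH 5.6) complexed w/ 75 ng psin-EGFP-IRES-Puro, 30 min RT; added to 3-5×10^4 HEK293/well, 37° C. Hoechst 0.2 μg/mL at 20-24 h, imaged after further 20-24 h. Efficiency = GFP+ cells / total nuclei.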

Compound	Absolute mRNA transfection efficiency in HEK293 cells (HEK293 cells [1]) [%]	Absolute DNA transfection efficiency in HEK293 cells (HEK293 cells [2]) [%]
CCCCCCCCCCCCSc1nc(NCCN(CC)CC)nc(SCCCCCCCCCCC)n1 [Compound S11S12D7]	0.4	3.1
CCCCCCCCCCCCCCCCCCNc1nc(NCCCCCC)nc(NCCN2CCCCC2)n1 [Compound N6N18D4]	0.2	2.0
CCCCCCCCCCCCCCCCNc1nc(NCCCCCCCCCCC)nc(NCCN2CCOCC2)n1 [Compound N11N16D2]	1.0	0.0
CCCCCCCCCCCNc1nc(NCCCCCCCC)nc(NCC2CCN(C)CC2)n1 [Compound N8N11D10]	0.2	0.3
CCCCCCCCCNc1nc(NCCCCCC)nc(NCCCN2CCOCC2)n1 [Compound N6N9D8]	0.0	0.0
CCCCCCCCCCCCCCCSc1nc(NCCN2CCN(C)CC2)nc(SCCCCCCCCCCCCCC)n1 [Compound S14S15D5]	0.0	0.0
CCCCCCCCCCCCCCCCCCNc1nc(NCCCCCCCCCCCCCCCC)nc(NCC2CCN(C)CC2)n1 [Compound N16N18D10]	1.8	3.0
CCCCCCCCCCCCCNc1nc(NCCCCCCCCCCCC)nc(NCCN2CCN(C)CC2)n1 [Compound N12N13D5]	0.0	0.3
CCCCCCCCCCCCCCCCSc1nc(NCCCN(C)C)nc(SCCCCCCCCCCCCCCC)n1 [Compound S15S16D6]	0.4	0.2
CCCCCCCCCCCCNc1nc(NCCCCCCC)nc(NCCCN2CCN(C)CC2)n1 [Compound N7N12D9]	0.0	0.1
CCCCCCCCCCCCCNc1nc(NCCCCCCCCCCC)nc(NCCN(C)C)n1 [Compound N11N13D1]	5.9	1.4
CCCCCCCCCCCCCCCCCCSc1nc(NCCN2CCCCC2)nc(SCCCCCCCCCC)n1 [Compound S10S18D4]	6.2	6.7
CCCCCCCCCCCCCCCCNc1nc(NCCCCCCCCCCC)nc(NCCCN2CCN(C)CC2)n1 [Compound N11N16D9]	0.9	0.0
CCCCCCCCCCCCCCCSc1nc(NCCN2CCCC2)nc(SCCCCCCCCCCCCCC)n1 [Compound S14S15D3]	0.0	0.3
CCCCCCCCCCCCCCCCSc1nc(NCCN2CCCC2)nc(SCCCCCCCC)n1 [Compound S8S16D3]	37.3	20.7
CCCCCCCCCCCCN(CCCCCCCCCCCC)c1nc(NCCCCCCCC)nc(NCCN2CCN(C)CC2)n1 [N8^2N12D5]	0.4	0.0
CCCCCCCCCCCCCCSc1nc(NCCN(C)C)nc(SCCCCCCCCCCCCCC)n1 [Compound S14S14D1]	0.0	0.1
CCCCCCCCCCCCCCCCNc1nc(NCCCCCCCCCCCCCCCC)nc(NCCN(C)C)n1 [Compound N16N16D1]	9.5	1.3
CCCCCCCCCCCCCCCCSc1nc(NCC2CCN(C)CC2)nc(SCCCCCCCCCCCCCCC)n1 [Compound S15S16D10]	0.6	0.6
CCCCCCCCCCCCCCCCNc1nc(NCCCCCCCCC)nc(NCCCN(C)C)n1 [Compound N9N16D6]	6.2	2.2
CCCCCCCCCCCCCCCSc1nc(NCCN2CCOCC2)nc(SCCCCCCCCCCCCCC)n1 [Compound S14S15D2]	0.0	0.1
CCCCCCCCCCCCNc1nc(NCCCCCCCCC)nc(NCCCN(C)C)n1 [Compound N9N12D6]	0.2	0.0
CCCCCCCCCCCCCCCCCCNc1nc(NCCCCCCCCCCCC)nc(NCCN2CCN(C)CC2)n1 [Compound N12N18D5]	1.9	0.0
CCCCCCCCCCCCCCCCCCSc1nc(NCCCN2CCOCC2)nc(SCCCCCCCCCCCCCCC)n1 [Compound S15S18D8]	0.5	0.0
